What was measured:
[1] = test system: hMSCs; experiment: LIVE/DEAD confocal imaging of two-dimensional BIO-treated hMSC cultures; type: cell-based, human; settings: no detectable dead cells
Procedure: FIG. 4 Schematic representation of 41 day hMSC monolayer culture after 24 hr exposure to BIO-containing media (A). Cells were trypsinized and manually counted on days 0, 1, 3, 6, 19, 27, 34, 37, and 41 and shown to undergo a dose-dependent, BIO-mediated increase in proliferation (B).
hMSC cell layer thickness was measured using the z-directional controls of a FV1000 Olympus Laser Scanning Confocal Microscope. On days 1, 14, and 40 cells, seeded on optically clear glass bottom 24-well culture plates (MatTek, Ashland, Mass.) were stained using a fluorescent LIVE/DEAD Viability/Cytotoxicity kit (Invitrogen). The focal plane of the microscope was adjusted to the cell-plate interface and set to zero. Using the z-directional controls the focal plane was raised until the live fluorescently stained cells were no longer visible at which point the cell layer thickness was recorded.

[2] = test system: active nuclear β-catenin; experiment: TOPFlash/FOPFlash reporter assay for active nuclear β-catenin in C3H10T1/2; type: cell-based, mouse; settings: for increase in normalized TOPFlash signal compared to untreated controls: after 24 hr treatment, C3H10T1/2
From the text: FIG. 3 Schematic representation of 3 hr C3H10T1/2 transfection with TOP/FOPFlash DNA plasmid followed by 24 hr exposure to BIO-containing media and subsequent analysis for active nuclear β-catenin over 5 days (A). Active nuclear β-catenin concentrations (TOPFlash) show a BIO-mediated dose-dependent increase immediately after BIO treatment as compared to control plasmid (FOPFlash) (B). Increased active nuclearβ-catenin concentrations persists for 3 days after BIO-treatment before returning to basal levels (C).
The β-catenin TOPFlash reporter plasmid and the FOPFlash mutant control (Addgene Plasmid #12456, and Addgene Plasmid #12457 were obtained in the form of DH5alpha bacterial stabs. Bacteria were streaked onto ampicillin-containing agar plates and grown overnight at 37° C. A single colony was selected, grown in 50 ml Luria-Bertani (LB) broth with 100 μg/ml ampicillin (Gibco) to select for ampicillin resistant colonies, and cultured at 37° C. under constant agitation for 24 hrs. Bacteria were centrifuged to form a pellet and plasmid DNA was purified using a Plasmid Midi Kit (Qiagen). Plasmid DNA was digested using EcoRI and PvuI restriction endonucleases (New England Biolabs) and fragments were separated on a 0.8% agarose gel. Molecular weights were verified using a standard DNA ladder (HyperLadder I, BioLine).
C3H10T1/2 mouse embryonic fibroblasts were seeded in multiple 48-well plates and treated with BIO containing growth media for 24 hrs to analyze the effects of β-catenin activity over time. […]
Luciferase activity was measured prior to BIO treatment (day 0), as well as on days 1, 2, 3, 4, and 5 after the 24 hr BIO treatment period. […] To each 96-well 25 μl of Luciferase Assay Reagent (Promega, Madison, Wis.) was added and total luminescence was measure immediately using a BioTek Synergy Mx plate-reader. Total luminescence was normalized to cellular DNA concentration using a Quant-iT PicoGreen dsDNA Assay Kit (Invitrogen) to account for well-to-well variability in cell density.

[3] = test system: hMSCs; experiment: alamarBlue metabolic assay of hMSC proliferation after BIO dosing (Example 1); type: cell-based, human; settings: for effect on hMSC population (alamarBlue): 24 hr dosing
Procedure: FIG. 1. Proliferative effect of BIO after 24 hr dosing; 0 μM (-□-, grey squares), 2 μM (-∘-, open circles), 5 μM (-▴-, black triangles), 10 μM (-X-, black crosses). Proliferation was assessed using alamarBlue metabolic assay. Error bars shown are standard error (n=3).
The small molecule GSK3β inhibitor 6-bromoindirubin-3′-oxime was synthesized as previously described (Polychronopoulos et al., J Med Chem. 2004; 47(4):935-46). It is also commercially available (such as from Sigma). The molecule was solubilized in dimethyl sulfoxide (DMSO) to specified concentrations. hMSCs were plated at a density of 5,000 cell/cm2 in 24-well tissue culture plates. Cells were allowed to become adherent for a period of 24 hrs before BIO was introduced. 10 μL of BIO in DMSO were added to 1 mL of culture media so that the final concentrations of 2, 5, and 10 μM were achieved. […] Culture continued over 33 days with media being replaced every three days. An alamarBlue cell viability assay was performed on days: −1 (before BIO treatment), 0, 4, 8, 12, 14, 17, 23, 26, 28, and 33. Cell population was normalized to alamarBlue readings after the initial period of 24 hr BIO dosing.

Structure (SMILES): O=C1Nc2cc(Br)ccc2/C1=C1/Nc2ccccc2/C1=N\O [BIO, 6-bromoindirubin-3′-oxime]
- live cells (LIVE/DEAD imaging) [1]: ~100%
- increase in normalized TOPFlash signal compared to untreated controls ([2]; 2 μM BIO): 71 fold
- increase in normalized TOPFlash signal compared to untreated controls ([2]; 5 μM BIO): 106 fold
- persistence of elevated TOPFlash signaling after BIO was removed, before returning to basal levels ([2]; C3H10T1/2, after 24 hr BIO treatment): three
- effect on hMSC population (alamarBlue) ([3]; BIO 2-5 μM): dose dependent proliferative response
- effect on hMSC population (alamarBlue) ([3]; BIO concentrations below 2 μM): did not have a noticeable effect
- effect of continual dosing on hMSCs ([3]; continual dosing with BIO, parallel study (data not shown)): complete cell death by day 5

From US9193954B2, “Methods and compositions for mesenchymal stem cell proliferation” (priority 2011, dated 2015)
